Assay [1] concerns the target T1, human DAT (Homo sapiens, UniProt Q01959).
T1 construct: expressed in transfected cells; host or cells: HEK-293 cells (Invitrogen, Zug, Switzerland)
Kind of assay: Inhibition of DA uptake. The format is cell-based. As to the method:
The potencies of the drugs to inhibit the DAT were evaluated as previously described in HEK-293 cells (Invitrogen, Zug, Switzerland) stably transfected with the human DAT [8].

Assay [2] concerns the target T1, human DAT. Briefly: Inhibition of methamphetamine-induced DA release. It is filed as cell-based. The note with it: HEK-293 cells expressing human DAT preloaded with 3H-DA; release induced with 10 μM methamphetamine, 15 min; means of 3–4 independent experiments and 95% CI. As for the experimental part:
We performed DA transporter mediated release experiments as previously published with slight modification. In brief, HEK-293 cells expressing the human DAT as stated above were cultured in 48 well-plates. Cells were filled with ^3H-DA, washed, and incubated with 250 μL buffer containing the drug alone or in combinations. […] DA release was stopped after 15 min by removing the release buffer from the cells. To quantify the DA release we determined the radioactivity in the cells after another wash step. The residual radioactivity in the cells after methamphetamine alone defined 100% DA release.

Assay [3] has as its target T1, human DAT. Also noted: method as in PMID 22897747. The note with it: read-out: DA release potency (EC50); HEK-293 cells expressing human DAT; 95% CI 0.9 μM-[…]; as shown previously ref 25; cited from earlier work.

Usually IC50 stands for the concentration that gives 50% inhibition. The EC50 is the concentration needed to bring the measured effect to its halfway point.

T1 sequence (Q01959 whole entry): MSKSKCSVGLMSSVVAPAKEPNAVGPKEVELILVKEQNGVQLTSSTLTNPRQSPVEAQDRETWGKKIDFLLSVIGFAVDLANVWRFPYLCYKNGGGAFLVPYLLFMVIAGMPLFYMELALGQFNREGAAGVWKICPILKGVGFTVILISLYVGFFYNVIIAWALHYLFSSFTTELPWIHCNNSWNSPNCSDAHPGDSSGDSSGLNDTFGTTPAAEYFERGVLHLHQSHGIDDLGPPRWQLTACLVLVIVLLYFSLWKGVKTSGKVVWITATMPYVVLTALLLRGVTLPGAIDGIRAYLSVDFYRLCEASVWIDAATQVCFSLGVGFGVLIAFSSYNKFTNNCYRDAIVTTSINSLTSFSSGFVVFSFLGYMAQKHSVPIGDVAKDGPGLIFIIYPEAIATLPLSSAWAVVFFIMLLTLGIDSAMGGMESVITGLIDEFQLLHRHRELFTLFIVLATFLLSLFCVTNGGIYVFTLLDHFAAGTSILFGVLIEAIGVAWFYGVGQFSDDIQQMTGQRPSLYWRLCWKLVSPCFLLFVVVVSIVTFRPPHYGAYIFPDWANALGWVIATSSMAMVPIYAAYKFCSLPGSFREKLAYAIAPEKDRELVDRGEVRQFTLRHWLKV

Turning to `CCCC(C(=O)c1ccc2c(c1)OCO2)N1CCCC1` (stereo not shown) [MDPV, 3,4-methylenedioxypyrovalerone], the IC50 at human DAT [1] (HEK-293 cells stably transfected with the human DAT, means of 3–4 independent experiments and 95% CI, read-out: DA uptake IC50 (95% CI)) was determined as 31 nM; at human DAT [2] it was 280 nM.
In turn, `CN[C@@H](C)Cc1ccccc1` [Methamphetamine, d-methamphetamine] had an IC50 against human DAT [1] of 1050 nM. Besides, the EC50 on human DAT [3] was 1560 nM.

These data come from article PMC3679734 (BMC Research Notes, 2013).
